Test [1] has as its system distal branches of the sympathetic nerve innervating the left adrenal gland. In words: Adrenal sympathetic nerve activity (ASNA) after intragastric administration, Test Example 1. It is filed as in vivo, rat. The settings on record: urethane-anesthetized male rats, measured for 60 minutes, FIG. 3. As for the experimental part: (§1) The effect of the intragastric administration of the compound represented by Structural Formula (1) on the activity of the sympathetic nerve innervating the white adipose tissue, the brown adipose tissue, the adrenal gland, or the liver was tested in the following manner. For the experiment, male Whistar rats (approximately 9 weeks old) each having a body weight of approximately 300 g were kept in a 24° C. thermostatic animal room for 1 week or longer with a 12-hour light-dark cycle (lighting from 8:00 to 20:00). On the day of the experiment, the rats were fasted for 3 hours, followed by anesthetizing with urethane. A cannula for intragastric administration was inserted into each of the rats, and then distal branches of the sympathetic nerve innervating the right epididymal white adipose tissue, the interscapular brown adipose tissue, the left adrenal gland, or the liver were lifted with a silver electrode, and the electrical activity thereof was measured. When the measurement value stabilized (at approximately 13:00), an aqueous solution of the compound represented by Structural Formula (1) (produced by Tokyo Chemical Industry Co., Ltd.) was intragastrically administered using the cannula at a dose of 15 mg/0.5 mL/300 g of body weight, 1.5 mg/0.5 mL/300 g of body weight, 0.15 mg/0.5 mL/300 g of body weight, or 0.015 mg/0.5 mL/300 g of body weight, and the change in the neural activity of the distal branches of the above sympathetic nerves was measured electrophysiologically for 60 minutes. In addition, as a control, water serving as a solvent was intragastrically administered using the cannula at a dose of 0.5 mL/300 g of body weight, and the change in the neural activity of the distal branches of the above sympathetic nerves was measured electrophysiologically for 60 minutes. […] The data of the neural activity was analyzed as the mean value of the firing rate per 5 seconds (pulse/5 s) every 5 minutes, and represented by a percentage relative to the mean value (a value at 0 minutes) at 5 minutes before the onset of stimulation being determined as 100%. FIG. 3 illustrates, as a percentage with respect to the mean value (a value at 0 minutes) at 5 minutes before the onset of stimulation being determined as 100%, the result of the change in the neural activity of distal branches of the sympathetic nerves for the adrenal gland (adrenal sympathetic nerve activity, ASNA) when the aqueous solution including 15 mg, 1.5 mg, 0.15 mg, or 0.015 mg of the compound represented by Structural Formula (1) was intragastrically administered at a dose of 0.5 mL/300 g of body weight, or water serving as the solvent was intragastrically administered at a dose of 0.5 mL/300 g of body weight.

The subject of test [2] is distal branches of the sympathetic nerve innervating the interscapular brown adipose tissue. In words: Brown adipose tissue sympathetic nerve activity (BAT-SNA) after intragastric administration, Test Example 1. It is filed as in vivo, rat. The settings on record: urethane-anesthetized male rats, measured for 60 minutes, FIG. 2. As for the experimental part:
as §1, with “FIG. 3 illustrates, as a percentage with respect to the mean value (a value at 0 minutes) at 5 minutes before the onset of stimulation being determined as 100%, the result of the change in the neural activity of distal branches of the sympathetic nerves for the adrenal gland (adrenal sympathetic nerve activity, ASNA) when the aqueous solution including 15 mg, 1.5 mg, 0.15 mg, or 0.015 mg of the compound represented by Structural Formula (1) was intragastrically administered at a dose of 0.5 mL/300 g of body weight, or water serving as the solvent was intragastrically administered at a dose of 0.5 mL/300 g of body weight.” left out

Setting [3] is: 0.15 mg/0.5 mL/300 g of body weight.
Setting [4] is: 1.5 mg/0.5 mL/300 g of body weight.
The mark [5] stands for this setting: 15 mg/0.5 mL/300 g of body weight.

SMILES strings stand for the structures.

Turning to `COc1cc(CCC(=O)O)ccc1O` [3-(4-hydroxy-3-methoxyphenyl) propionic acid], the “change in adrenal sympathetic nerve activity (ASNA) versus water control” value in test [1] (0.015 mg/0.5 mL/300 g of body weight), in test [1] (setting [3]), in test [1] (setting [4]) and in test [1] (setting [5]) was “higher than the ASNA value of the group to which water serving as the solvent was administered” throughout. Besides, the “change in brown adipose tissue sympathetic nerve activity (BAT-SNA) versus water control” value in test [2] (setting [3]), in test [2] (setting [4]) and in test [2] (setting [5]) was “higher than the BAT-SNA value of the group to which water serving as the solvent was administered” each time.
